Test results as given in the NIST ThermoML archive (doi:10.1021/je060271a).
Values joined by “and” are separate entries in the source; they are usually repeats but may differ in a detail not shown here. Equal entries are not always repeated. Numbers after ± are expanded uncertainties.

Conditions: Liquid, Vibrating tube method

CCCCC(=O)OCC(COC(=O)CCCC)(COC(=O)CCCC)COC(=O)CCCC [pentaerythritol tetrapentanoate]
Conditions | mass density
323.15 K, 31189 kPa | 1015 ± 1.2 kg/m3
323.15 K, 31223 kPa | 1015.1 ± 1.2 kg/m3
323.15 K, 31256 kPa | 1015.1 ± 1.2 kg/m3
323.15 K, 31290 kPa | 1015.1 ± 1.2 kg/m3
323.15 K, 31330 kPa | 1015.1 ± 1.2 kg/m3
323.15 K, 31363 kPa | 1015 ± 1.2 kg/m3
323.15 K, 31397 kPa | 1015.2 ± 1.2 kg/m3
323.15 K, 31438 kPa | 1015.2 ± 1.2 kg/m3
323.15 K, 31473 kPa | 1015.2 ± 1.2 kg/m3
323.15 K, 31507 kPa | 1015.2 ± 1.2 kg/m3
323.15 K, 31540 kPa | 1015.3 ± 1.2 kg/m3
323.15 K, 31581 kPa | 1015.3 ± 1.2 kg/m3
323.15 K, 31615 kPa | 1015.4 ± 1.2 kg/m3
323.15 K, 31649 kPa | 1015.3 ± 1.2 kg/m3
323.15 K, 31689 kPa | 1015.3 ± 1.2 kg/m3
323.15 K, 31724 kPa | 1015.3 ± 1.2 kg/m3
323.15 K, 31758 kPa | 1015.3 ± 1.2 kg/m3
323.15 K, 31794 kPa | 1015.4 ± 1.2 kg/m3
323.15 K, 31834 kPa | 1015.5 ± 1.2 kg/m3
323.15 K, 31869 kPa | 1015.4 ± 1.2 kg/m3
323.15 K, 31914 kPa | 1015.4 ± 1.2 kg/m3
323.15 K, 31941 kPa | 1015.6 ± 1.2 kg/m3
323.15 K, 31982 kPa | 1015.4 ± 1.2 kg/m3
323.15 K, 32017 kPa | 1015.6 ± 1.2 kg/m3
323.15 K, 32052 kPa | 1015.6 ± 1.2 kg/m3
323.15 K, 32093 kPa | 1015.7 ± 1.2 kg/m3
323.15 K, 32128 kPa | 1015.6 ± 1.2 kg/m3
323.15 K, 32170 kPa | 1015.7 ± 1.2 kg/m3
323.15 K, 32206 kPa | 1015.7 ± 1.2 kg/m3
323.15 K, 32240 kPa | 1015.6 ± 1.2 kg/m3
323.15 K, 32283 kPa | 1015.7 ± 1.2 kg/m3
323.15 K, 32318 kPa | 1015.7 ± 1.2 kg/m3
323.15 K, 32354 kPa | 1015.8 ± 1.2 kg/m3
323.15 K, 32398 kPa | 1015.8 ± 1.2 kg/m3
323.15 K, 32434 kPa | 1015.8 ± 1.2 kg/m3
323.15 K, 32470 kPa | 1015.8 ± 1.2 kg/m3
323.15 K, 32513 kPa | 1015.7 ± 1.2 kg/m3
323.15 K, 32550 kPa | 1015.9 ± 1.2 kg/m3
323.15 K, 32586 kPa | 1015.9 ± 1.2 kg/m3
323.15 K, 32623 kPa | 1015.9 ± 1.2 kg/m3
323.15 K, 32666 kPa | 1016 ± 1.2 kg/m3
323.15 K, 32701 kPa | 1016 ± 1.2 kg/m3
323.15 K, 32745 kPa | 1015.9 ± 1.2 kg/m3
323.15 K, 32782 kPa | 1016.1 ± 1.2 kg/m3
323.15 K, 32820 kPa | 1016 ± 1.2 kg/m3
323.15 K, 32864 kPa | 1016.1 ± 1.2 kg/m3
323.15 K, 32902 kPa | 1016 ± 1.2 kg/m3
323.15 K, 32939 kPa | 1016.1 ± 1.2 kg/m3
323.15 K, 32977 kPa | 1016.1 ± 1.2 kg/m3
323.15 K, 33022 kPa | 1016.1 ± 1.2 kg/m3
323.15 K, 33058 kPa | 1016.2 ± 1.2 kg/m3
323.15 K, 33096 kPa | 1016.1 ± 1.2 kg/m3
323.15 K, 33141 kPa | 1016.2 ± 1.2 kg/m3
323.15 K, 33179 kPa | 1016.3 ± 1.2 kg/m3
323.15 K, 33224 kPa | 1016.3 ± 1.2 kg/m3
323.15 K, 33262 kPa | 1016.2 ± 1.2 kg/m3
323.15 K, 33300 kPa | 1016.2 ± 1.2 kg/m3
323.15 K, 33338 kPa | 1016.3 ± 1.2 kg/m3
323.15 K, 33384 kPa | 1016.4 ± 1.2 kg/m3
323.15 K, 33423 kPa | 1016.4 ± 1.2 kg/m3
323.15 K, 33462 kPa | 1016.3 ± 1.2 kg/m3
323.15 K, 33508 kPa | 1016.5 ± 1.2 kg/m3
323.15 K, 33546 kPa | 1016.4 ± 1.2 kg/m3
323.15 K, 33593 kPa | 1016.5 ± 1.2 kg/m3
323.15 K, 33633 kPa | 1016.5 ± 1.2 kg/m3
323.15 K, 33672 kPa | 1016.4 ± 1.2 kg/m3
323.15 K, 33712 kPa | 1016.4 ± 1.2 kg/m3
323.15 K, 33760 kPa | 1016.6 ± 1.2 kg/m3
323.15 K, 33800 kPa | 1016.5 ± 1.2 kg/m3
323.15 K, 33841 kPa | 1016.5 ± 1.2 kg/m3
323.15 K, 33890 kPa | 1016.6 ± 1.2 kg/m3
323.15 K, 33934 kPa | 1016.6 ± 1.2 kg/m3
323.15 K, 33978 kPa | 1016.7 ± 1.2 kg/m3
323.15 K, 34031 kPa | 1016.8 ± 1.2 kg/m3
323.15 K, 34078 kPa | 1016.7 ± 1.2 kg/m3
323.15 K, 34125 kPa | 1016.7 ± 1.2 kg/m3
323.15 K, 34165 kPa | 1016.8 ± 1.2 kg/m3
323.15 K, 34193 kPa | 1016.8 ± 1.2 kg/m3
323.15 K, 34215 kPa | 1016.8 ± 1.2 kg/m3
323.15 K, 34242 kPa | 1016.9 ± 1.2 kg/m3
323.15 K, 34266 kPa | 1016.9 ± 1.2 kg/m3
323.15 K, 34294 kPa | 1016.8 ± 1.2 kg/m3
323.15 K, 34311 kPa | 1016.8 ± 1.2 kg/m3
323.15 K, 34334 kPa | 1016.9 ± 1.2 kg/m3
323.15 K, 34359 kPa | 1017 ± 1.2 kg/m3
323.15 K, 34383 kPa | 1016.9 ± 1.2 kg/m3
323.15 K, 34414 kPa | 1017 ± 1.2 kg/m3
323.15 K, 34441 kPa | 1016.9 ± 1.2 kg/m3
323.15 K, 34467 kPa | 1016.9 ± 1.2 kg/m3
323.15 K, 34492 kPa | 1017 ± 1.2 kg/m3
323.15 K, 34493 kPa | 1017.1 ± 1.2 kg/m3
323.15 K, 34495 kPa | 1017 ± 1.2 kg/m3
323.15 K, 34498 kPa | 1017 ± 1.2 kg/m3
323.15 K, 34500 kPa | 1017.1 ± 1.2 kg/m3
323.15 K, 34502 kPa | 1017.1 ± 1.2 kg/m3
323.15 K, 34504 kPa | 1017.1 ± 1.2 kg/m3
323.15 K, 34507 kPa | 1017.1 ± 1.2 kg/m3
323.15 K, 34510 kPa | 1017 ± 1.2 kg/m3
343.14 K, 4331.4 kPa | 981.8 ± 1.2 kg/m3
343.14 K, 4369.7 kPa | 981.9 ± 1.2 kg/m3
343.14 K, 4403.1 kPa | 981.9 ± 1.2 kg/m3
343.14 K, 4438.3 kPa | 981.9 ± 1.2 kg/m3
343.14 K, 4480.3 kPa | 982 ± 1.2 kg/m3
343.14 K, 4516.3 kPa | 982 ± 1.2 kg/m3
343.14 K, 4553 kPa | 982.1 ± 1.2 kg/m3
343.14 K, 4648.1 kPa | 982.1 ± 1.2 kg/m3
343.14 K, 4649.8 kPa | 982.1 ± 1.2 kg/m3
343.14 K, 4651.7 kPa | 982.2 ± 1.2 kg/m3
343.14 K, 4656 kPa | 982.2 ± 1.2 kg/m3
343.14 K, 4659.5 kPa | 982 ± 1.2 kg/m3
343.14 K, 4659.7 kPa | 982.3 ± 1.2 kg/m3 and 982.2 ± 1.2 kg/m3
343.14 K, 4661.6 kPa | 982.1 ± 1.2 kg/m3
343.14 K, 4661.9 kPa | 982 ± 1.2 kg/m3
343.14 K, 4662.1 kPa | 982.1 ± 1.2 kg/m3 and 982 ± 1.2 kg/m3
343.14 K, 4662.3 kPa | 982.1 ± 1.2 kg/m3
343.14 K, 4662.4 kPa | 982.2 ± 1.2 kg/m3
343.14 K, 4662.6 kPa | 982.1 ± 1.2 kg/m3
343.14 K, 4662.8 kPa | 982.1 ± 1.2 kg/m3
343.14 K, 4663.1 kPa | 982.1 ± 1.2 kg/m3
343.14 K, 4671.9 kPa | 982.1 ± 1.2 kg/m3
343.14 K, 4688.2 kPa | 982 ± 1.2 kg/m3
343.14 K, 4712.1 kPa | 982.2 ± 1.2 kg/m3
343.14 K, 4732.7 kPa | 982.3 ± 1.2 kg/m3
343.14 K, 4774.6 kPa | 982.2 ± 1.2 kg/m3
343.14 K, 4799.7 kPa | 982.2 ± 1.2 kg/m3
343.14 K, 4821 kPa | 982.3 ± 1.2 kg/m3
343.14 K, 4842.3 kPa | 982.4 ± 1.2 kg/m3
343.14 K, 4868.4 kPa | 982.4 ± 1.2 kg/m3
343.14 K, 4886.2 kPa | 982.3 ± 1.2 kg/m3
343.14 K, 4912.7 kPa | 982.3 ± 1.2 kg/m3
343.14 K, 21139 kPa | 994 ± 1.2 kg/m3
343.14 K, 21166 kPa | 994 ± 1.2 kg/m3
343.14 K, 21194 kPa | 994.3 ± 1.2 kg/m3
343.14 K, 21221 kPa | 994 ± 1.2 kg/m3
343.14 K, 21398 kPa | 994.3 ± 1.2 kg/m3
343.14 K, 21431 kPa | 994.3 ± 1.2 kg/m3
343.14 K, 21460 kPa | 994.4 ± 1.2 kg/m3
343.14 K, 21488 kPa | 994.4 ± 1.2 kg/m3
343.14 K, 21522 kPa | 994.5 ± 1.2 kg/m3
343.14 K, 21550 kPa | 994.3 ± 1.2 kg/m3
343.14 K, 21578 kPa | 994.5 ± 1.2 kg/m3
343.14 K, 21611 kPa | 994.5 ± 1.2 kg/m3
343.14 K, 21640 kPa | 994.4 ± 1.2 kg/m3
343.14 K, 21669 kPa | 994.4 ± 1.2 kg/m3
343.14 K, 21702 kPa | 994.5 ± 1.2 kg/m3
343.14 K, 21732 kPa | 994.4 ± 1.2 kg/m3
343.14 K, 21760 kPa | 994.6 ± 1.2 kg/m3
343.14 K, 21795 kPa | 994.6 ± 1.2 kg/m3
343.14 K, 21825 kPa | 994.6 ± 1.2 kg/m3
343.14 K, 21856 kPa | 994.6 ± 1.2 kg/m3
343.14 K, 21885 kPa | 994.7 ± 1.2 kg/m3
343.14 K, 21920 kPa | 994.7 ± 1.2 kg/m3
343.14 K, 21949 kPa | 994.6 ± 1.2 kg/m3
343.14 K, 21979 kPa | 994.6 ± 1.2 kg/m3
343.14 K, 22008 kPa | 994.7 ± 1.2 kg/m3
343.14 K, 22044 kPa | 994.8 ± 1.2 kg/m3
343.14 K, 22073 kPa | 994.7 ± 1.2 kg/m3
343.14 K, 22109 kPa | 994.9 ± 1.2 kg/m3
343.14 K, 22139 kPa | 994.8 ± 1.2 kg/m3
343.14 K, 22169 kPa | 994.8 ± 1.2 kg/m3
